Tests used:
[1] = Serum insulin (PK) profile after subcutaneous injection, Human Insulin ELISA; format: in vivo, rat; conditions: 5 U/kg
Experimental: Blood samples were collected via tail vein bleeding at 0 minutes and at 30, 60, 90, 120, 150, 180, 210, 240, and 300 minutes after injection. Blood from each timepoint was centrifuged at 4 C to collect the serum. Serum insulin concentrations were subsequently measured with a commercially available ELISA kit (Human Insulin ELISA, Mercodia, Uppsala, Sweden).
This example describes the serum insulin and blood glucose depression profiles obtained for a subcutaneously administered exemplary conjugate. […] In this case, the conjugate was injected at 5 U/kg behind the neck of fasted normal non-diabetic rats (Male Sprague-Dawley, 400-500 g, n=3). […] Serum insulin concentrations were subsequently measured with a commercially available ELISA kit (Human Insulin ELISA, Mercodia, Uppsala, Sweden).
In each case, the conjugate or insulin lispro was injected at 3.5 U/kg behind the neck of fasted normal non-diabetic rats (Male Sprague-Dawley, 400-500 gm, n=6). […] Serum insulin concentrations were subsequently measured with a commercially available ELISA kit (Human Insulin ELISA, Mercodia, Uppsala, Sweden).
Blood samples were collected via tail vein bleeding at 0 minutes and at 30, 60, 90, 120, 150, 180, 210, 240, and 300 minutes after injection. […] Serum insulin concentrations were subsequently measured with a commercially available ELISA kit (Human Insulin ELISA, Mercodia, Uppsala, Sweden).

[2] = tested on: fasted normal non-diabetic rats (Male Sprague-Dawley); experiment: Blood glucose depression profile after subcutaneous injection; format: in vivo, rat
Experimental: Subcutaneous injections of the insulin-dextran were administered using 0.25 ml of a sterilized 1×PBS solution (20 U of equivalent insulin/ml) behind the neck of fasted normal non-diabetic rats (Male Sprague-Dawley, 200-250 g, n=4). Blood samples were collected via tail vein bleeding at −15 and 0 minutes, and at 15, 30, 45, 60, 90, 120, 180, 240, 300 and 360 minutes after injection. Blood glucose values were measured using commercially available test strips (Precision Xtra, Abbott Laboratories, Abbott Park, Ill.).
This example evaluates the in vivo pharmacodynamic profile of subcutaneously administered insulin-glycogen. […] The bioactivity of the insulin-glycogen conjugate was evaluated by injecting a 2.5 equivalent U of insulin/kg dose behind the neck of fasted normal non-diabetic rats (Male Sprague-Dawley, 200-250 g, n=4). Blood samples were collected via tail vein bleeding at −15 and 0 minutes, and at 15, 30, 45, 60, 90, 120, 180, 240, 300 and 360 minutes after injection. Blood glucose values were measured using commercially available test strips (Precision Xtra, Abbott Laboratories, Abbott Park, Ill.).

[3] = 0.25 ml of 20 U of equivalent insulin/ml

Substance: B29-substituted conjugate: synthesized using TSAT-C6 as the framework, AEM as the affinity ligand, and recombinant human insulin as the drug
- pharmacokinetic profile (serum insulin) compared to RHI and B1-substituted conjugate [1]: statistically indistinguishable from that of RHI

Substance: insulin-glycogen: comparative insulin-glycogen conjugate from oyster glycogen Type II according to US 20070099820
- glucose lowering compared to insulin-dextran conjugates ([2]; 2.5 equivalent U of insulin/kg): lower glucose levels much more rapidly and to a greater extent

Substance: insulin-dextran: comparative insulin-dextran conjugate (dextran MW 70K) made by CNBr coupling, 10% (w/w) insulin
- time serum glucose levels remain depressed post injection [2, 3]: at least five
- time to reach the glucose nadir (Tnadir) [2, 3]: about 3 hours

Reference: patent publication US8940690B2, “Synthetic conjugates and uses thereof” (National Institutes of Health (NIH), priority 2009, dated 2015)
